{"source": "patent US20140275276A1", "about": "“PHARMACEUTICAL COMPOSITION OF S-KETAMINE HYDROCHLORIDE” (JANSSEN PHARMACEUTICA NV, priority 2013, published 2014)", "assay_type_in_all_cases": "cell-based", "key": {"Aspergillus brasiliensis": {"test_system": "Aspergillus brasiliensis", "assay": "Microbial challenge test / Full AET challenge test", "conditions": "spike 10^5-10^6 CFU/ml, 28 days of incubation at room temperature", "source_text": "(§1) A challenge test was initiated to investigate whether the formulation could prevent microorganisms from proliferating. The challenge test consisted of challenging the formulation with a prescribed inoculum of microorganisms. The inoculated formulation was then stored at room temperature and at specified time intervals a sample was withdrawn to count the microorganisms in the sample.\n(§2) The formulations listed in Table 3 were additionally subjected to a Full AET challenge, with results for the individual formulations are shown in Tables 5-8, below. Additionally, Table 9 below, provides results for a Full AET challenge of a reference formulation containing 0.00 mg/mL S-ketamine hydrochloride, denatonium benzoate (to mimic the taste of the S-ketamine HCl formulation(s)), and adjusted to pH 5.21 with 1N NaOH."}, "Pseudomonas aeruginosa": {"test_system": "Pseudomonas aeruginosa", "assay": "Microbial challenge test / Full AET challenge test", "conditions": "spike 10^5-10^6 CFU/ml, room temperature", "source_text": "as §1, §2"}, "Candida albicans": {"test_system": "Candida albicans", "assay": "Microbial challenge test / Full AET challenge test", "conditions": "spike 10^5-10^6 CFU/ml, room temperature", "source_text": "as §1, §2"}, "Staphylococcus aureus": {"test_system": "Staphylococcus aureus", "assay": "Microbial challenge test / Full AET challenge test", "conditions": "spike 10^5-10^6 CFU/ml, room temperature", "source_text": "as §1, §2"}, "Escherichia coli": {"test_system": "Escherichia coli", "assay": "Microbial challenge test / Full AET challenge test", "conditions": "spike 10^5-10^6 CFU/ml, room temperature", "source_text": "as §1, §2"}, "[1]": {"test_system": "environmental Micrococcus Luteus", "assay": "Full AET challenge test", "conditions": "spike 10^5-10^6 CFU/ml, room temperature", "source_text": "as §1, §2"}, "[2]": {"test_system": "environmental isolate Staphylococcus haemolyticus", "assay": "Microbial challenge test", "conditions": "spike 10^5-10^6 CFU/ml, room temperature", "source_text": "as §1"}}}
{"smiles": "CN[C@]1(c2ccccc2Cl)CCCCC1=O.Cl", "note": "[S-ketamine hydrochloride, (S)-2-(2-chlorophenyl)-2-(methylamino)cyclohexanone hydrochloride]", "values": [{"measurement": "Antimicrobial effect in words (change of the original spike)", "setting": "Aspergillus brasiliensis", "result": "some inhibitory activity"}, {"measurement": "Antimicrobial effect in words (change of the original spike)", "setting": "Pseudomonas aeruginosa", "result": "strong antimicrobial properties"}, {"measurement": "Antimicrobial effect in words (change of the original spike)", "setting": "Candida albicans", "result": "strong antimicrobial properties"}, {"measurement": "Antimicrobial effect in words (change of the original spike)", "setting": "Staphylococcus aureus", "result": "strong antimicrobial properties"}, {"measurement": "Antimicrobial effect in words (change of the original spike)", "setting": "Escherichia coli", "result": "strong antimicrobial properties"}, {"measurement": "Antimicrobial effect in words (change of the original spike)", "setting": "[1]", "result": "strong antimicrobial properties"}, {"measurement": "Antimicrobial effect in words (change of the original spike)", "setting": "[2]", "result": "strong antimicrobial properties"}]}
